Read-outs that look alike come from different tables or passages of the source.
Assays:
[1] = tested on: A. baumannii strain 98-37-09; experiment: Potentiation of ciprofloxacin toward serum grown A. baumannii; format: cell-based, Acinetobacter baumannii; conditions: 100% human serum, 0.125 μg ml^−1 ciprofloxacin, 1× or 2× MEC, 48 hour, growth inhibition
From the text: As a means to further prioritize non-toxic compounds of interest based on their therapeutic promise, it was considered that broad spectrum antimicrobial efflux pump inhibitors may be more clinically valuable than narrow-spectrum agents that only potentiate the activity of a limited number of antibiotics or that display activity toward a single bacterial species. […] To do so, 1×10^5 A. baumannii strain 98-37-09 were inoculated into individual wells of microtiter plates containing 100% human serum supplemented with 0.125 μg ml^−1 ciprofloxacin and 0, 1×, or 2× the compound's MEC, as defined by the lowest concentration needed to potentiated minocycline's antimicrobial effects (above). Plates were incubated for 48 hour at which point each compound's ability to potentiate ciprofloxacin was measured, as growth inhibition.

human HepG2 cells = experiment: MTT cell viability (cytotoxicity) assay
Protocol: To distinguish putatively non-toxic from human cytotoxic compounds, conventional 3-(4,5-dimethylthiazol-2yl)-2,5-diphenyltetrazolium bromide (MTT) cell viability assays (American Type Culture Collection, Manassas, Va.) were performed for each compound of interest at 1× and 4× their MEC. Briefly, human HepG2 cells were grown to approximately 1×10^6 cells per well in Dulbecco's Modified Eagle Media supplemented with 10% fetal bovine serum (Invitrogen, Carlsbad, Calif.) then treated with 1× or 4× the MEC of the indicated […] Cell viability was measured following the addition of the tetrazolium salt (MTT) as per the manufacturer's recommendations; cells challenged with 50 ug ml^−1 Mitomycin C (Sigma Aldrich) and mock-treated cells served as positive and negative controls, respectively.

[2] = tested on: A. baumannii strain 98-37-09; experiment: Cellular accumulation of minocycline (HPLC, triple-quadrupole MS); format: cell-based, Acinetobacter baumannii; conditions: human serum with 0.5 μg mL^−1 minocycline plus test compound (0.5×MEC, 1×MEC), 48 hours
Protocol: High pressure liquid chromatography and triple-quadrupole mass spectrometry were used to measure the A. baumannii intracellular levels of minocycline during growth in human serum in the absence and presence of each putative efflux pump inhibitor. […] Cultures were incubated for 48 hours with shaking, at which point an aliquot was removed, serially diluted, and plated to determine the number of viable CFU per mixture. The remainder of the cells were pelleted by centrifugation at 900×g at 4° C., washed twice in PBS, mechanically lysed with a FastPrep cell disrupter (MP Biomedicals, Santa Ana, Calif.) for 20 seconds at 5 m s^−1 and the cellular debris was pelleted via centrifugation at 900×g and 4° C. The amount of minocycline present within the supernatant of ruptured cells was measured. Briefly, doxycycline (0.5 μg mL^−1) was first added to each supernatant to serve as an internal control to account for sample-to-sample preparation variability. The supernatant was then combined with acetonitrile (ACN) at a 1:10 ratio and centrifuged at 16,000×g, at 4° C., to collect minocycline and doxycycline. […] residual liquid was evaporated in a speed vacuum for 2 hours at 8,000×g. To quantify the amount of antibiotics retained, sample materials were suspended in 50% acetonitrile, filtered through a 0.2 μm low protein binding hydrophilic membrane (Millipore, Billerica, Mass.) then separated on Shimadzu high performance liquid chromatography instrument (Fisher Scientific) using a BetaBasic C18 reverse phase column (Thermo Scientific). Separation was carried out with two mobile phase solutions consisting of solution (A) water with 0.1% formic acid and solution (B) 100% ACN. The gradient profile of the chromatography runs was as follows: from 0 to 0.1 min 8% solution B, ramp step wise (37% to 60% solution B) from 0.1 to 6.5 min then holding for one minute before ramping down from 60% to 10% from 7.5 to 8 min. This was followed a hold at 10% solution B for one minute. […] The column was equilibrated in 8% solution B at 40° C. and the flow rate was set to 0.2 mL min^−1. Mass spectrometry analysis of fractions was carried out using a Thermo TSQ Quantum Ultra triple quadrupole mass spectrometer (Fisher Scientific). Data were analyzed using Xcalibur software (Thermo Scientific); the following parameters were used to detect minocycline and the internal control doxycycline: 458.208 m/z→282.971 m/z (collision energy=43, tube lens=119) for minocycline and 445.144 m/z→266.900 m/z (collision energy=39, tube lens=127) for doxycycline. Analysis of the raw data was conducted by using the area under the curve calculations with the Genesis algorithm to determine the concentration in each sample. The difference between the peak intensity and the y intercept of pre-established minocycline and doxycycline standard curves was divided by the slope of the standard curve to quantify the amount of minocycline within each sample. The total concentration of minocycline within each cell was calculated by normalizing to the number of cells within each corresponding culture.

[3] = tested on: A. baumannii strain 98-37-09; experiment: MEC determination: potentiation of minocycline toward serum grown A. baumannii; format: cell-based, Acinetobacter baumannii; conditions: for Log-reduction Colony Forming Units (ml^−1): 1×MEC of compound plus minocycline in serum, versus minocycline alone, plating; for MEC: lowest concentration inhibiting growth in 100% human serum with 0.5 μg ml^−1 minocycline, 48 hr
Protocol: The TimTec ActiProbe-25K diversity-set and Natural Product compound libraries (29,900 compounds total; TimTec, Newark, Del.) were initially screened for putative efflux pump inhibitors by identifying compounds that potentiated the antimicrobial property of a sub-inhibitory concentration of minocycline toward A. baumannii grown in human serum. To do so, A. baumannii strain 98-37-09 was grown for 16 hours in LB medium at 37° C. on a rotary shaker at 225 rpm. Approximately 1×10^5 CFU were then transferred to individual wells of a 96-well round-bottom plate (Corning Costar, Tewksbury, Mass.) containing 100 μL of human serum supplemented with of minocycline (0.5 μg mL^−1; 0.5× minimum inhibitory concentration in serum) and individual members of the Timtec ActiProbe or Natural product library (50 μM). Plates were then incubated at 37° C. for 48 hours. Growth was measured as a function of turbidity. Putative efflux pump inhibitors were identified as compounds that inhibited A. baumannii growth in human serum containing minocycline and were subsequently retested in triplicate, as indicated above. Untreated A. baumannii grown in serum supplemented with minocycline+/−PAβN served as positive and negative controls, respectively. […] Repeat testing in which well constituents were serial diluted and plated on LB agar plates validated that 85 compounds did indeed limit A. baumannii growth in serum supplemented with minocycline, reducing the number of viable colony forming units between 2-6 log cfu in comparison to minocycline alone treated cells.
The MEC was defined as the lowest concentration of test compound required to inhibit the growth of A. baumannii in serum in the presence of 0.5 μg ml^−1 minocycline. Plating confirmed that addition of 1×MEC of each compound elicited ≥1.9-log reduction in A. baumannii cells grown in serum supplemented with minocycline alone (see Table 1).

Row | Structure (SMILES) | Potentiate Ciprofloxacin A. baumannii [1] | % Viability (human HepG2 cells) [%] | Minocylcine Per Cell (femtomoles cell^−1) [2] [femtomoles cell^−1] | Log-reduction Colony Forming Units (ml^−1) [3] [log] | MEC [3] [µg/mL] | % Viability (human HepG2 cells; HepG2 cellular survival at 4×MEC) [%] | % Viability (human HepG2 cells; human, 48 h, 4 ×MEC) [%]
1 | Cc1cc2c(c(=O)o1)C(c1ccc(F)cc1)C(C#N)=C(N)O2 (stereo not drawn) [ST007013] | No | 80.9 | 5E−04 | 1.95 | 4 | – | –
2 | Cc1ccc(C=Nc2cc([N+](=O)[O-])ccc2O)cc1 [ST010277] | No | 82.4 | 1.15E−05 | 7.33 | 32 | – | –
3 | Cc1nnc(SCC2=C(C(=O)[O-])N3C(=O)[C@@H](NC(=O)Cn4cnnn4)[C@H]3SC2)s1.[Na+] [ST024775] | – | – | 1.72E−05 | 4.84 | 16 | 41.62 | –
4 | CCOC(=O)/C=C/C(=O)Nc1ccc(S(=O)(=O)Nc2nccs2)cc1 [ST026450] | No | – | 2.35E−06 | 5.37 | 32 | – | 100
5 | CCOC(=O)/C=C/C(=O)Nc1ccc(S(N)(=O)=O)cc1 [ST026465] | No | – | 3.82E−04 | 6.36 | 32 | – | 100
6 | C/C(=N\NC(=O)c1ccccc1F)c1ccccc1O [ST033061] | No | 77.58 | 1.96E−04 | 2.18 | 2 | – | –
7 | N#Cc1c(/N=C/c2ccc([N+](=O)[O-])o2)sc2c1CCCC2 [ST033065] | No | 75.6 | 2.06E−05 | 2.44 | 2 | – | –
8 | O=C(c1ccc(Cl)cc1Cl)n1cc([N+](=O)[O-])cn1 [ST033231] | – | 70.87 | 3.42E−06 | 1.91 | 32 | – | –
9 | O=C(N/N=C/c1ccc2c(c1)OCO2)c1ccccc1O [ST033341] | No | 75.88 | 3.39E−05 | 2.42 | 2 | – | –
10 | COc1cc(/C=N/NC(=O)c2sc3ccccc3c2Cl)cc(OC)c1OC [ST033346] | – | 74.67 | 3.615E−07 | 2.00 | 2 | – | –
11 | Cc1cccc(N(CC(=O)Nc2ccc(Cc3ccncc3)cc2)S(=O)(=O)c2ccccc2)c1 [ST034014] | No | 84.27 | 5.46E−04 | 2.37 | 2 | – | –
12 | COc1ccc(C2N(Cc3ccccc3)CCN2Cc2ccccc2)cc1 [ST036291] | No | 75.74 | 5.5E−05 | 3.31 | 2 | – | –
13 | COC(=O)CCC(=O)Nc1ccc(S(N)(=O)=O)cc1 [ST040289] | No | 78.8 | 8.38E−04 | 4.32 | 4 | – | –
14 | CC(=O)NS(=O)(=O)c1ccc(N)cc1 [ST040724] | No | – | 1.45E−04 | 4.08 | 64 | – | –
15 | Cc1ccc(C2N(Cc3ccccc3)CCCN2Cc2ccccc2)o1 [ST048001] | No | 82.72 | 1.99E−04 | 7.06 | 32 | – | –
16 | COc1ccc2c(c1)CCC(C)N2S(=O)(=O)c1ccc(C2CNC(=O)C2)cc1 (stereo not drawn) [ST058899] | No | 80.69 | 1.08E−04 | 6.21 | 64 | – | –
17 | Nc1ccc(S(=O)(=O)Nc2ncccn2)cc1 [ST059447] | No | 76.78 | 4.52E−05 | 5.74 | 4 | – | –
18 | O=C1c2ccccc2C(=O)N1CCN1CCNCC1 [ST059581] | No | 84.56 | 5.64E−05 | 6.12 | 32 | – | –
19 | COc1cc(C(=O)Nc2ccccc2C(=O)NCC2CCCO2)cc(OC)c1OC (stereo not drawn) [ST060053] | No | 76.11 | 1.78E−04 | 4.94 | 4 | – | –
20 | COC(=O)c1ccc(COc2ccc(-c3nnn[nH]3)cc2)cc1 [ST060272] | No | 85.35 | 3.67E−07 | 6.90 | 32 | – | –

Reference: patent US10471028B2, “Small molecule efflux pump inhibitors” (UNIVERSITY OF ROCHESTER, priority 2014, dated 2019)
